# According to ChEMBL document CHEMBL5223163, “In the Quest for Potent and Selective Malic Enzyme 3 Inhibitors for the Treatment of Pancreatic Ductal Adenocarcinoma” (ACS Med Chem Lett, 2023):
# Experiments:
# [1] = target: NAD-dependent malic enzyme, mitochondrial (Homo sapiens, UniProt P23368); assay: Inhibition of His-tagged human recombinant full length ME2 using L-malate and beta-NAD+ as substrate preincubated with enzyme for 5 mins followed by beta-NAD+ challenge and incubated under shaking for 5 mins followed by incubation for 2 hrs without shaking by resorufin dye based fluorescence analysis; conditions: read-out: IC50
# Chain of NAD-dependent malic enzyme, mitochondrial (P23368 whole entry): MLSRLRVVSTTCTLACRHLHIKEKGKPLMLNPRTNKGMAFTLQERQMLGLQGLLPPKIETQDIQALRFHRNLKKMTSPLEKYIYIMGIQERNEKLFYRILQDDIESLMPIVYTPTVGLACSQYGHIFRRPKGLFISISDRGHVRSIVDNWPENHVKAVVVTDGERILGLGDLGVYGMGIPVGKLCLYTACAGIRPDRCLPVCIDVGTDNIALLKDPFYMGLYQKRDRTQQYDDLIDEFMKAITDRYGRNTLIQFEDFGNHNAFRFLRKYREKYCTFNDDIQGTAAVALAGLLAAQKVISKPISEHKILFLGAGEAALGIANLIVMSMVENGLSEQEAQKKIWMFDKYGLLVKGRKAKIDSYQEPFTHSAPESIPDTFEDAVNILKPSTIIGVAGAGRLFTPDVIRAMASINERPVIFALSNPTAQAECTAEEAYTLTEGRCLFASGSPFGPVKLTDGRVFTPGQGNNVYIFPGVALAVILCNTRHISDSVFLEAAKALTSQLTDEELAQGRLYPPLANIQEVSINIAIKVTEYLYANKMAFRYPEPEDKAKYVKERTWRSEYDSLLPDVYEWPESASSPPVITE
# [2] = target: T1, NADP-dependent malic enzyme (Homo sapiens, UniProt P48163); assay: Inhibition of His-tagged human recombinant full length ME1 using L-malate and beta-NADP+ as substrate preincubated with enzyme for 5 mins followed by beta-NADP+ challenge and incubated under shaking for 5 mins followed by incubation for 2 hrs without shaking by resorufin dye based fluorescence analysis; conditions: read-out: IC50
# T1 sequence (P48163 whole entry): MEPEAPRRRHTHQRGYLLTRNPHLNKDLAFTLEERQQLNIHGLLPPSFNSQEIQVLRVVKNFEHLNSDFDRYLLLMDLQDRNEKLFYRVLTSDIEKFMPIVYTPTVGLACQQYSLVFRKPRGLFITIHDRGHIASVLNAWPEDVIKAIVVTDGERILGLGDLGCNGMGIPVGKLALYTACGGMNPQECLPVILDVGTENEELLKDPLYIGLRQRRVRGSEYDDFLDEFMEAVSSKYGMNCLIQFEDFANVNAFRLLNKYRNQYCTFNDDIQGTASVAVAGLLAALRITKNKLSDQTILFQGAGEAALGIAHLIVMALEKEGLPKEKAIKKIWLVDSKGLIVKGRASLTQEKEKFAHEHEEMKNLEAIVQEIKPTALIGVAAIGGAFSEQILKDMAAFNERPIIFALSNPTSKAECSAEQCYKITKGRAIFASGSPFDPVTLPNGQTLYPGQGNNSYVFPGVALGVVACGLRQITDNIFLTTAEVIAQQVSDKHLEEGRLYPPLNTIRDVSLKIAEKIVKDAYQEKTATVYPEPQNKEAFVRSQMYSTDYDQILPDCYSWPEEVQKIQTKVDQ
# [3] = Selectivity for SMAD4/ME2-null human BXPC-3 cells over human HCE-T cells
# [4] = target: T2, NADP-dependent malic enzyme, mitochondrial (Homo sapiens, UniProt Q16798)
# T2 sequence (Q16798 whole entry): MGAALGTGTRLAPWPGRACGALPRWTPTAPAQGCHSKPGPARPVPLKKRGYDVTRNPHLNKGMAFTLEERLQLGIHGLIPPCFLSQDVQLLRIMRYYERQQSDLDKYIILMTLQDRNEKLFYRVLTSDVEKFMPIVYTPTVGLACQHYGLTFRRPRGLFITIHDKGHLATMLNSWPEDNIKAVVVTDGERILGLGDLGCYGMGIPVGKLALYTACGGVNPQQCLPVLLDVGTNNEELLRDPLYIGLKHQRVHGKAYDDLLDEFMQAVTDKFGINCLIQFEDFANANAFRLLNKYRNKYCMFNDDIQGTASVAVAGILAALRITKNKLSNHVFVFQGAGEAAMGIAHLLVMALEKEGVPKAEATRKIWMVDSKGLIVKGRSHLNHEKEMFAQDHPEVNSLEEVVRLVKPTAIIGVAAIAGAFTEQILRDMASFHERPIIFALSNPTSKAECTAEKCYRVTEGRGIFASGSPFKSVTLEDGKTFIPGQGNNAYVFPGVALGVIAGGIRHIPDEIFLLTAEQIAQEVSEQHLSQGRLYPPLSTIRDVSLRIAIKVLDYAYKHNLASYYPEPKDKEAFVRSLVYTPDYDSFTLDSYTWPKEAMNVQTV
# Description: Inhibition of His-tagged human recombinant ME3 (26 to 604 residues) using L-malate and beta-NADP+ as substrate preincubated with enzyme for 5 mins followed by beta-NADP+ challenge and incubated under shaking for 5 mins followed by incubation for 3 hrs without shaking by resorufin dye based fluorescence analysis
# BXPC-3 [5] = assay: cells; conditions: Homo sapiens, BXPC-3, 72 h, read-out: INH
# Description: Antiproliferative activity against SMAD4/ME2-null human BXPC-3 cells assessed as inhibition of cell growth at 10 uM incubated for 72 hrs by CellTiter-Glo luminescence assay
# BXPC-3 [6] = assay: cells; conditions: Homo sapiens, BXPC-3, 72 h
# Description: Antiproliferative activity against SMAD4/ME2-null human BXPC-3 cells assessed as inhibition of cell growth incubated for 72 hrs by CellTiter-Glo luminescence assay
# [7] = Cytotoxicity against human HCE-T cells assessed as inhibition of cell growth; assay type: toxicity, cell-based
# [8] = target: T3, NADP-dependent malic enzyme, mitochondrial (Homo sapiens) (UniProt Q16798); conditions: dose 0.1 µM, time 190.0 min
# T3 sequence (whole entry): T2 sequence (Q16798 whole entry)
# BXPC-3 [9] = assay: Antiproliferative activity against SMAD4/ME2-null human BXPC-3 cells assessed as inhibition of cell growth at 1 uM incubated for 72 hrs by CellTiter-Glo luminescence assay; assay type: functional
Structure (SMILES),IC50 [1] [nM],IC50 [2] [nM],Selectivity ratio [3],IC50 [4] [nM],inhibition at 10 µM (BXPC-3 [5]) [%],IC50 (BXPC-3 [6]) [nM],IC50 [7] [nM],inhibition [8] [%],inhibition at 1 µM (BXPC-3 [9]) [%]
O=C(Cc1ccc(Cl)cc1)N1CCN(c2ccc(O)cc2)CC1,150,150,5,130,80,5700,–,–,–
COCCOc1ccc(CCC(=O)N2CCN(c3ccc(O)cn3)CC2)cc1,2600,3500,5,580,3,–,–,–,–
O=C(COc1ccccc1)N1CCN(c2ccc(O)cc2)CC1,390,630,5,130,55,–,–,–,–
O=C(Cc1ccccc1)NC1CCN(c2ccc(O)cc2)CC1,–,–,–,70,–,–,–,–,–
CC(C)(CC(=O)N1CCN(c2ccc(O)cn2)CC1)c1ccc(Cl)cc1,2800,1500,5,360,97,5400,> 30000,–,–
O=C(CCc1ccc(F)cc1)N1CCN(c2ccc(O)cn2)CC1,1660,1740,5,410,48,–,–,–,–
O=C(Nc1ccccc1)N1CCN(c2ccc(O)cc2)CC1,220,200,5,110,28,31000,–,–,–
CC(C)CN1CCN(c2ccc(O)cn2)CC1,–,–,–,–,6,–,–,0,0
CC(C)(CC(=O)N1CCN(c2ccc(O)cn2)CC1)c1ccc(F)cc1,1110,1300,5,310,100,5900,> 30000,–,–
CC(=O)N1CCN(c2ccc(O)cn2)CC1,–,–,–,–,0,–,–,23,0
O=C(Nc1nnn[nH]1)c1cc(-c2ccccc2)nc2ccccc12,1700,13800,–,5100,–,–,–,–,–
CCCCOc1ccc(CCC(=O)N2CCN(c3ccc(O)cc3)CC2)cc1,350,420,5,60,29,–,–,–,–
O=C(CCc1cc2ccccc2s1)N1CCN(c2ccc(O)cn2)CC1,1630,1200,5,240,46,–,–,–,–
Oc1ccc(N2CCNCC2)nc1,–,–,–,–,12,–,–,0,2
COc1ccc(CCC(=O)N2CCN(c3ccc(O)cn3)CC2)cc1,2500,1900,5,470,13,–,–,–,–
O=C(Nc1ccccc1)C1CCN(c2ccc(O)cc2)CC1,–,–,–,130,–,–,–,–,–

Structure (SMILES),IC50 [1] [nM],IC50 [2] [nM],Selectivity ratio [3],IC50 [4] [nM],inhibition at 10 µM (BXPC-3 [5]) [%],IC50 (BXPC-3 [6]) [nM],IC50 [7] [nM],inhibition [8] [%],inhibition at 1 µM (BXPC-3 [9]) [%]
O=C(O)c1cc2ccccc2c(Cc2cc3ccccc3c(C(=O)O)c2O)c1O,2800,10300,–,5600,–,–,–,–,–
CCCCOc1ccc(CCC(=O)N2CCN(c3ccc(O)cn3)CC2)cc1,3900,1310,5,390,7,15000,–,–,–
O=C(/C=C/c1ccccc1)N1CCN(c2ccc(O)cc2)CC1,230,170,5,80,29,–,–,–,–
O=C1CC(N2CCN(c3ccc(O)cc3)CC2)C(=O)N1c1ccccc1 (stereo not drawn),200,220,5,150,0,–,–,–,–
O=C(CCc1ccccc1)N1CCN(c2ccc(O)cc2)CC1,270,270,5,100,93,3600,> 30000,–,–
Oc1ccc(N2CCN(CC3CC3)CC2)nc1,–,–,–,–,0,–,–,0,0
COc1ccc(N2CCN(C(=O)CCc3ccccc3)CC2)nc1,–,–,–,–,13,–,–,–,–
O=C(CCc1ccccc1)N1CCN(c2ccc(F)cn2)CC1,–,–,–,–,0,> 30000,–,–,–
O=C(Cc1ccccc1)N1CCN(c2ccc(O)cn2)CC1,980,1600,–,200,–,–,–,–,–
O=C(Cc1ccc(C(F)(F)F)cc1)N1CCN(c2ccc(O)cc2)CC1,410,210,5,330,39,–,–,–,–
O=C(CCc1cccs1)N1CCN(c2ccc(O)cn2)CC1,1290,1320,5,160,76,4600,25000,–,–
O=C(Nc1nnn[nH]1)C1c2ccccc2OC2C=CC=CC21 (stereo not drawn),200,220,–,21000,–,–,–,–,–
O=C(Cc1ccccc1)N1CCN(c2ccc(O)cc2)CC1,190,180,5,100,80,6000,–,–,–
O=C(CN1CCN(c2ccc(O)cc2)CC1)Nc1ccccc1,360,340,5,110,18,–,–,–,–
O=C(CCc1ccc(Cl)cc1)N1CCN(c2ccc(O)cn2)CC1,1590,1020,5,140,71,6300,> 30000,–,–
